Source: patent US11951094B2, “TLR2 modulator compounds, pharmaceutical compositions and uses thereof” (Axial Therapeutics, Inc., priority 2020, dated 2024)
Counter-ions that a name gives are not always drawn.

biological target: TLR2 (Homo sapiens, UniProt O60603); assay: TLR2 agonist screening assay, HEK-Blue TLR2 reporter cell line (NF-kB-driven SEAP, absorbance at 600 nm); type: cell-based; design: host or cells: HEK-293 (HEK-Blue TLR2 reporter cell line); conditions: HEK-Blue TLR2 reporter cells, agonist mode; average of all runs (Table 3)
Sequence (O60603 21-784): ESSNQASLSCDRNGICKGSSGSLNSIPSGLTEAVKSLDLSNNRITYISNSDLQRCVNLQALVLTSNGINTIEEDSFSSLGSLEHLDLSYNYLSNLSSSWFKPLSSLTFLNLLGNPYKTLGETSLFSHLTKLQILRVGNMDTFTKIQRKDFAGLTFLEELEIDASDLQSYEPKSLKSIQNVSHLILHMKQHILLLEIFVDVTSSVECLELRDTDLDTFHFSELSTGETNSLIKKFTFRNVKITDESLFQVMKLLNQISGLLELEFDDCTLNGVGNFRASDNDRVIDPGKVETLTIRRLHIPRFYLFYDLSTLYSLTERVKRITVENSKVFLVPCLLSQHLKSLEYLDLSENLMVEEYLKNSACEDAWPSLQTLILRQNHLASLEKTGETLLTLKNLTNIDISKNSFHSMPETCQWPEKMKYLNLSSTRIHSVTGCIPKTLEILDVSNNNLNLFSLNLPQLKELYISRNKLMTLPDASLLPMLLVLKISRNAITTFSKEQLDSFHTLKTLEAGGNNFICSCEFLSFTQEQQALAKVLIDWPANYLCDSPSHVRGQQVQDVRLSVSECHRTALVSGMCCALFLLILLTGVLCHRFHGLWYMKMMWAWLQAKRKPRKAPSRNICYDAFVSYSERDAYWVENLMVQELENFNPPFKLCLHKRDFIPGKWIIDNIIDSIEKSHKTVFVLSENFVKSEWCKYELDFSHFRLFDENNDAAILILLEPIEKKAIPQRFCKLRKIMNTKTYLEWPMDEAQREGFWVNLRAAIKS
Outline: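 EC50 values come from dilution series of agonist on TLR2-transfected HEK-293 reporter cells carrying an NF-kB-SEAP construct. Cells sat overnight with compound in substrate-containing Detection medium at 1% DMSO, and secreted phosphatase activity was quantified as absorbance at 600 nm.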

Row | SMILES | EC50
1 | CCCCCCNC(=O)[C@@H]1CN(C(=O)c2ccc(C(=O)N3C[C@@H](C(=O)N[C@H]4C[C@@H]4c4ccccc4)[C@H](C(=O)N[C@H]4C[C@@H]4c4ccccc4)C3)cc2)C[C@H]1NC(=O)CCCCCC [Compound 039] | > 1 µM
2 | CCCCCCCO[C@H]1CN(C(=O)c2ccc(C(=O)N3C[C@@H](C(=O)N[C@H]4C[C@@H]4c4ccccc4)[C@H](C(=O)N[C@H]4C[C@@H]4c4ccccc4)C3)cc2)C[C@H]1C(=O)NCCCCCC (single isomer, unassigned) [Compound 073, (3S,4S)-1-(4-((3R*,4R*)-3-(heptyloxy)-4-(hexylcarbamoyl)pyrrolidine-1-carbonyl)benzoyl)-N3,N4-bis((1S,2R)-2-phenylcyclopropyl)pyrrolidine-3,4-dicarboxamide] | 0.351 to 1 µM
3 | CCCCCCNC(=O)C1CN(C(=O)c2ccc(C(=O)N3C[C@@H](C(=O)N[C@H]4C[C@@H]4c4ccccc4)[C@H](C(=O)N[C@H]4C[C@@H]4c4ccccc4)C3)cc2)CCN1 (stereo partly drawn) [Compound 042, (3S,4S)-1-(4-(3-(hexylcarbamoyl)piperazine-1-carbonyl)benzoyl)-N3,N4-bis((1S,2R)-2-phenylcyclopropyl)pyrrolidine-3,4-dicarboxamide formate] | 0.351 to 1 µM
4 | CCCCCN(CCCCC)C(=O)[C@H]1CCN(C(=O)c2ccc(C(=O)N3C[C@@H](C(=O)N[C@H]4C[C@@H]4c4ccccc4)[C@H](C(=O)N[C@H]4C[C@@H]4c4ccccc4)C3)cc2)C1 [Compound 022] | > 1 µM
5 | CCCCCCCCCCCCCCNC(=O)[C@@H]1CN(C(=O)c2ccc(C(=O)N3C[C@@H](C(=O)N[C@H]4C[C@@H]4c4ccccc4)[C@H](C(=O)N[C@H]4C[C@@H]4c4ccccc4)C3)cc2)C[C@H]1NC(C)=O [Compound 028, (3S,4S)-1-(4-((3S,4R)-3-acetamido-4-(tetradecylcarbamoyl)pyrrolidine-1-carbonyl)benzoyl)-N3,N4-bis((1S,2R)-2-phenylcyclopropyl)pyrrolidine-3,4-dicarboxamide] | 0.051 to 0.35 µM

same assay, conditions: HEK-Blue TLR2 reporter cells, agonist mode; average of all runs (Table 4)

Row | SMILES | EC50
6 | O=C(N[C@H]1C[C@@H]1c1ccccc1)[C@@H]1CN(C(=O)c2ccc(C(=O)N3C[C@@H](C(=O)N[C@H]4C[C@@H]4c4ccccc4)[C@H](C(=O)N[C@H]4C[C@@H]4c4cccnc4)C3)cc2)C[C@H]1C(=O)N[C@H]1C[C@@H]1c1ccccc1 (relative stereo) [Compound 096, (3S,4S)—N3-((1S)-2-phenylcyclopropyl)-N4-(2-phenylcyclopropyl)-1-(4-((3S,4S)-3-(((1S,2R)-2-phenylcyclopropyl)carbamoyl)-4-(((1S*,2R*)-2-(pyridin-3-yl)cyclopropyl)carbamoyl)pyrrolidine-1-carbonyl)benzoyl)pyrrolidine-3,4-dicarboxamide] | 0.0001 to 0.05 µM
7 | CCCCCCNC(=O)[C@H](CNC(=O)c1ccc(C(=O)N2C[C@@H](C(=O)N[C@H]3C[C@@H]3c3ccccc3)[C@H](C(=O)N[C@H]3C[C@@H]3c3ccccc3)C2)cc1)NC(=O)OCCCCCC [Compound 226, hexyl ((S)-3-(4-((3S,4S)-3,4-bis(((1S,2R)-2-phenylcyclopropyl)carbamoyl)pyrrolidine-1-carbonyl)benzamido)-1-(hexylamino)-1-oxopropan-2-yl)carbamate] | > 1 µM
8 | CCCCCNC(=O)[C@@H]1CN(C(=O)c2ccc(C(=O)N3C[C@@H](C(=O)N[C@H]4C[C@@H]4c4ccccc4)[C@H](C(=O)N[C@H]4C[C@@H]4c4ccccc4)C3)cc2)CCN1C(C)=O [Compound 264, (3S,4S)-1-(4-((S)-4-acetyl-3-(pentylcarbamoyl)piperazine-1-carbonyl)benzoyl)-N3,N4-bis((1S,2R)-2-phenylcyclopropyl) pyrrolidine-3,4-dicarboxamide] | > 1 µM
9 | CCCCCCNC(=O)[C@H](CN[C@@H](c1ccc(C(=O)N2C[C@@H](C(=O)N[C@H]3C[C@@H]3c3ccccc3)[C@H](C(=O)N[C@H]3C[C@@H]3c3ccccc3)C2)cc1)C(F)(F)F)NC(=O)CCCCCC (single isomer, unassigned) [Compound 148] | 0.351 to 1 µM
10 | O=C(N[C@H]1C[C@@H]1c1ccccc1)[C@@H]1CN(C(=O)c2ccc(C(=O)N3C[C@@H](C(=O)N[C@@H]4C[C@H]4c4cccnc4)[C@H](C(=O)N[C@@H]4C[C@H]4c4cccnc4)C3)cc2)C[C@H]1C(=O)N[C@H]1C[C@@H]1c1ccccc1 (single isomer, unassigned) [Compound 095, (3S,4S)-1-(4-((3S,4S)-3,4-bis(((1S*,2R*)-2-(pyridin-3-yl)cyclopropyl)carbamoyl)pyrrolidine-1-carbonyl)benzoyl)-N3,N4-bis((1S,2R)-2-phenylcyclopropyl) pyrrolidine-3,4-dicarboxamide] | 0.351 to 1 µM
11 | CCCCCCCCCCCCCCNC(=O)[C@@H]1CN(C(=O)c2ccc(C(=O)N3C[C@@H](C(=O)N[C@H]4C[C@@H]4c4ccccc4)[C@H](C(=O)N[C@H]4C[C@@H]4c4ccccc4)C3)cc2)CCO1 [Compound 151, (3S,4S)—N3,N4-bis((1S,2R)-2-phenylcyclopropyl)-1-(4-((S)-2-(tetradecylcarbamoyl)morpholine-4-carbonyl)benzoyl)pyrrolidine-3,4-dicarboxamide] | > 1 µM
12 | CCCCCCCCCCCCCCNC(=O)[C@H]1CN(C(=O)c2cccc(C(=O)N3C[C@@H](C(=O)N[C@H]4C[C@@H]4c4ccccc4)[C@H](C(=O)N[C@H]4C[C@@H]4c4ccccc4)C3)c2)CCN1C(C)=O [Compound 172, (3S,4S)-1-(3-((R)-4-acetyl-3-(tetradecylcarbamoyl)piperazine-1-carbonyl)benzoyl)-N3,N4-bis((1S,2R)-2-phenylcyclopropyl)pyrrolidine-3,4-dicarboxamide] | > 1 µM
13 | CCCCCCCC(=O)N1CCN(Cc2ccc(C(=O)N3C[C@@H](C(=O)N[C@H]4C[C@@H]4c4ccccc4)[C@H](C(=O)N[C@H]4C[C@@H]4c4ccccc4)C3)cc2)C[C@H]1C(=O)NCCCCCC [Compound 122, (3S,4S)-1-(4-(((S)-3-(hexylcarbamoyl)-4-octanoylpiperazin-1-yl)methyl)benzoyl)-N3,N4-bis((1S,2R)-2-phenylcyclopropyl) pyrrolidine-3,4-dicarboxamide] | > 1 µM
14 | CCCCCCCCCCCCCCC(=O)N1CCC[C@H](NC(=O)c2ccc(C(=O)N3C[C@@H](C(=O)N[C@H]4C[C@@H]4c4ccccc4)[C@H](C(=O)N[C@H]4C[C@@H]4c4ccccc4)C3)cc2)C1 [Compound 125, (3S,4S)-1-(4-(((S)-1-pentadecanoylpiperidin-3-yl)carbamoyl)benzoyl)-N3,N4-bis((1S,2R)-2-phenylcyclopropyl)pyrrolidine-3,4-dicarboxamide] | > 1 µM
15 | CCCCCCCC(=O)N1CCCN(S(=O)(=O)c2ccc(C(=O)N3C[C@@H](C(=O)N[C@H]4C[C@@H]4c4ccccc4)[C@H](C(=O)N[C@H]4C[C@@H]4c4ccccc4)C3)cc2)CC1C(=O)NCCCCCC (single isomer, unassigned) [Compound 202, (3S,4S)-1-(4-(((S*)-3-(hexylcarbamoyl)-4-octanoyl-1,4-diazepan-1-yl)sulfonyl)benzoyl)-N3,N4-bis((1S,2R)-2-phenylcyclopropyl)pyrrolidine-3,4-dicarboxamide] | 0.051 to 0.35 µM
16 | CCCCCCNC(=O)[C@H](CNC(=O)c1ccc(C(=O)N2C[C@@H](C(=O)N[C@H]3C[C@@H]3c3ccccc3)[C@H](C(=O)N[C@H]3C[C@@H]3c3ccccc3)C2)cc1)NC(=O)CCc1ccc(F)cc1 [Compound 139, (3S,4S)-1-(4-(((S)-2-(3-(4-fluorophenyl)propanamido)-3-(hexylamino)-3-oxopropyl)carbamoyl)benzoyl)-N3,N4-bis ((1S,2R)-2-phenylcyclopropyl) pyrrolidine-3,4-dicarboxamide] | 0.0001 to 0.05 µM
17 | CO[C@H]1CN(C(=O)c2ccc(C(=O)N3C[C@@H](C(=O)N[C@H]4C[C@@H]4c4ccccc4)[C@H](C(=O)N[C@H]4C[C@@H]4c4ccccc4)C3)cc2)C[C@@H]1NC(=O)NCc1ccc(F)cc1 [Compound 183, (3S,4S)-1-(4-((3S,4S)-3-(3-(4-fluorobenzyl)ureido)-4-methoxypyrrolidine-1-carbonyl)benzoyl)-N3,N4-bis((1S,2R)-2-phenylcyclopropyl)pyrrolidine-3,4-dicarboxamide] | 0.051 to 0.35 µM
18 | CCCCCCNC(=O)[C@H](CNC(=O)c1ccc(C(=O)N2C[C@@H](C(=O)N[C@H]3C[C@@H]3c3ccccc3)[C@H](C(=O)N[C@H]3C[C@@H]3c3ccccc3)C2)cc1)NC(=O)NCCCCC [Compound 137, (3S,4S)-1-(4-(((S)-3-(hexylamino)-3-oxo-2-(3-pentylureido)propyl)carbamoyl)benzoyl)-N3,N4-bis((1S,2R)-2-phenylcyclopropyl)pyrrolidine-3,4-dicarboxamide] | 0.051 to 0.35 µM
19 | CCCCCCCCCC(=O)N[C@@H](CNC(=O)Nc1ccc(C(=O)N2C[C@@H](C(=O)N[C@H]3C[C@@H]3c3ccccc3)[C@H](C(=O)N[C@H]3C[C@@H]3c3ccccc3)C2)cc1)C(=O)NCCCCCC [Compound 235, (3S,4S)-1-(4-(3-((S)-2-decanamido-3-(hexylamino)-3-oxopropyl)ureido)benzoyl)-N3,N4-bis((1S,2R)-2-phenylcyclopropyl)pyrrolidine-3,4-dicarboxamide] | > 1 µM
20 | CCCCCCCCCCCCCCNC(=O)[C@H]1CN(Cc2ccc(C(=O)N3C[C@@H](C(=O)N[C@H]4C[C@@H]4c4ccccc4)[C@H](C(=O)N[C@H]4C[C@@H]4c4ccccc4)C3)cc2)CCN1C [Compound 084, (3S,4S)-1-(4-(((R)-4-methyl-3-(tetradecylcarbamoyl)piperazin-1-yl)methyl)benzoyl)-N3,N4-bis((1S,2R)-2-phenylcyclopropyl) pyrrolidine-3,4-dicarboxamide] | > 1 µM
21 | CCCCCCCCCC(=O)N[C@@H](CNCc1ccc(C(=O)N2C[C@@H](C(=O)N[C@H]3C[C@@H]3c3ccccc3)[C@H](C(=O)N[C@H]3C[C@@H]3c3ccccc3)C2)cc1)C(=O)NCCCCCC [Compound 266, (3S,4S)-1-(4-((((S)-2-decanamido-3-(hexylamino)-3-oxopropyl)amino)methyl)benzoyl)-N3,N4-bis((1S,2R)-2-phenylcyclopropyl) pyrrolidine-3,4-dicarboxamide] | 0.351 to 1 µM
